# From ChEMBL document CHEMBL4350986, “Triptolide: Medicinal chemistry, chemical biology and clinical progress” (Eur J Med Chem, 2019)
# Legend:
# [1] = tested on: HCT-116; assay: Cytotoxicity against human HCT116 cells assessed as decrease in cell viability; format: functional, cell-based
# [2] = tested on: Jurkat; assay: Cytotoxicity against human Jurkat cells assessed as decrease in cell viability; format: functional, cell-based
# [3] = tested on: HL-60; assay: Cytotoxicity against human HL60 cells assessed as decrease in cell viability; format: functional, cell-based
# [4] = Half life of the compound; format: physicochemical
# [5] = tested on: P388; assay: Cytotoxicity against mouse P388 cells assessed as decrease in cell viability after 72 hrs by MTT assay; format: functional, cell-based; details: P388, 72 h
# [6] = tested on: HL-60; assay: Cytotoxicity against human HL60 cells assessed as decrease in cell viability after 72 hrs by MTT assay; format: functional, cell-based; details: HL-60, 72 h
# [7] = tested on: A549; assay: Cytotoxicity against human A549 cells assessed as decrease in cell viability after 72 hrs by MTT assay; format: functional, cell-based; details: A549, 72 h
# [8] = tested on: MKN-28; assay: Cytotoxicity against human MKN28 cells assessed as decrease in cell viability after 72 hrs by MTT assay; format: functional, cell-based; details: MKN-28, 72 h
# [9] = tested on: MCF7; assay: Cytotoxicity against human MCF7 cells assessed as decrease in cell viability after 72 hrs by MTT assay; format: functional, cell-based; details: MCF7, 72 h
# [10] = tested on: KB; assay: Cytotoxicity against human KB cells assessed as decrease in cell viability by MTT assay; format: functional, cell-based
# [11] = tested on: BGC-823; assay: Cytotoxicity against human BGC823 cells assessed as decrease in cell viability by MTT assay; format: functional, cell-based
# [12] = tested on: MCF7; assay: Cytotoxicity against human MCF7 cells assessed as decrease in cell viability by MTT assay; format: functional, cell-based
# [13] = tested on: HeLa; assay: Cytotoxicity against human HeLa cells assessed as decrease in cell viability by MTT assay; format: functional, cell-based
# [14] = tested on: HL-60; assay: Cytotoxicity against human HL60 cells assessed as decrease in cell viability by MTT assay; format: functional, cell-based
# [15] = tested on: HeLa; assay: Cytotoxicity against human HeLa cells assessed as decrease in cell viability; format: functional, cell-based
# [16] = tested on: MDCK; assay: Cytotoxicity against MDCK cells assessed as decrease in cell viability; format: functional, cell-based; details: Canis lupus familiaris
# [17] = tested on: NIH3T3; assay: Cytotoxicity against mouse NIH/3T3 cells assessed as decrease in cell viability; format: functional, cell-based
# [18] = Toxicity in rat ear inflammation model; details: in vivo
# [19] = Cytotoxicity against human Bre01 cells assessed as decrease in cell viability; format: functional, cell-based
# [20] = Cytotoxicity against human Col-06 cells assessed as decrease in cell viability; format: functional, cell-based
# [21] = Cytotoxicity against human SK-MEL-8 cells assessed as decrease in cell viability; format: functional, cell-based
# [22] = Cytotoxicity against human OVCAR1 cells assessed as decrease in cell viability; format: functional, cell-based
# [23] = Cytotoxicity against human Re-01 cells assessed as decrease in cell viability; format: functional, cell-based
smiles,measurement,setting,value
CC(C)[C@]12O[C@H]1[C@@H]1O[C@]13[C@]1(O[C@H]1C[C@H]1C4=C(CC[C@@]13C)C(=O)OC4)[C@@H]2N,IC50,[1],772 nM
CCCNC(=O)OCCC[C@]12O[C@H]1[C@@H]1O[C@@]13[C@@]1(C)CCC4=C(COC4=O)[C@@H]1C[C@@H]1O[C@@]13C2=O,IC50,[1],8.4 nM
CC(C)C1=C[C@@H]2O[C@@]23[C@@]2(C)CCC4=C(COC4=O)[C@@H]2C[C@@H]2O[C@@]23C1=O,IC50,[2],31000 nM
same,IC50,[3],16000 nM
C[C@]12CCC3=C(COC3=O)[C@@H]1C[C@@H]1O[C@@]13C(=O)[C@@]1(CCCC(=O)O)O[C@H]1[C@@H]1O[C@]123,IC50,[1],560 nM
CC(C)[C@]12O[C@H]1[C@@H]1O[C@]13[C@]1(O[C@H]1C[C@H]1C4=C(CC[C@@]13C)C(=O)OC4)[C@@H]2OCOP(=O)([O-])[O-].[Na+].[Na+] [MINNELIDE],half-life,[4],2 min
CC(C)[C@]12O[C@H]1[C@@H]1O[C@]13[C@]1(O[C@H]1C[C@@]1(O)C4=C(CC[C@]31C)C(=O)OC4)[C@@H]2O,IC50,[5],0.04 to 0.2 nM
same,IC50,[6],0.04 to 0.2 nM
same,IC50,[7],0.04 to 0.2 nM
same,IC50,[8],0.04 to 0.2 nM
same,IC50,[9],0.04 to 0.2 nM
same,IC50,[10],300 nM
same,IC50,[11],1500 nM
same,IC50,[12],1050 nM
same,IC50,[13],340 nM
same,IC50,[14],470 nM
C[C@]12CCC3=C(COC3=O)[C@@H]1C[C@@H]1O[C@@]13[C@@H](O)[C@@]1(CCO)O[C@H]1[C@@H]1O[C@@]132,IC50,[1],70.7 nM
CC(C)C1=C[C@H]2O[C@]23[C@@]2(C)CCC4=C(COC4=O)[C@@H]2C[C@@H]2O[C@@]23C1=O,IC50,[2],16000 nM
same,IC50,[3],16000 nM
CC(C)[C@]12O[C@H]1[C@@H]1O[C@]13[C@]1(O[C@H]1C[C@H]1C4=C(CC[C@@]13C)C(=O)O[C@H]4O)[C@@H]2O,IC50,[10],46500 nM
same,IC50,[14],52600 nM
CC[C@@H](CO)[C@]12O[C@H]1[C@@H]1O[C@@]13[C@@]1(C)CCC4=C(COC4=O)[C@@H]1C[C@@H]1O[C@@]13C2=O,IC50,[15],2 nM
same,IC50,[16],270 nM
same,IC50,[2],< 40 nM
same,IC50,[17],10 nM
CC(C)[C@]12O[C@H]1[C@@H]1O[C@]13[C@]1(O[C@H]1C[C@H]1C4=C(CC[C@@]13C)C(=O)OC4)[C@@H]2NC=O,IC50,[1],354 nM
CC(C)[C@]12O[C@H]1[C@@H]1O[C@@]13[C@@]1(C)[C@H](O)CC4=C(COC4=O)[C@@H]1C[C@@H]1O[C@@]13[C@@H]2O,IC50,[10],120 nM
same,IC50,[11],7650 nM
same,IC50,[12],870 nM
same,IC50,[13],320 nM
same,IC50,[14],70 nM
C[C@@H]([C@@H]1CO1)[C@]12O[C@H]1[C@@H]1O[C@@]13[C@@]1(C)CCC4=C(COC4=O)[C@@H]1C[C@@H]1O[C@@]13C2=O,IC50,[17],40 nM
C[C@]12CCC3=C(COC3=O)[C@@H]1C[C@@H]1O[C@@]13[C@H](O)[C@@]1(CCO)O[C@H]1[C@@H]1O[C@@]132,IC50,[1],74.7 nM
CC(C)[C@]1(O)[C@H](O)[C@@H]2O[C@]23[C@]2(O[C@H]2C[C@H]2C4=C(CC[C@@]23C)C(=O)OC4)[C@@H]1O,LD50,[18],> 500 mg/kg
CC(C)[C@]12O[C@H]1[C@@H]1O[C@]13[C@]1(O[C@H]1C[C@H]1C4=C(CC[C@@]13C)C(=O)OC4)[C@@H]2O [TRIPTOLIDE],IC50,[1],4.7 nM
same,IC50,[15],87 nM
same,IC50,[16],1200 nM
same,IC50,[2],140 nM
same,IC50,[17],50 nM
same,IC50,[19],0.04 µg/mL
same,IC50,[20],0.02 µg/mL
same,IC50,[21],0.02 µg/mL
same,IC50,[22],0.006 µg/mL
same,IC50,[23],0.03 µg/mL
CC(C)[C@]1(O)[C@H](N=C=S)[C@@H]2O[C@]23[C@]2(O[C@H]2C[C@H]2C4=C(CC[C@@]23C)C(=O)OC4)[C@@H]1O,IC50,[19],0.055 µg/mL
same,IC50,[20],0.03 µg/mL
same,IC50,[21],0.09 µg/mL
same,IC50,[22],0.02 µg/mL
same,IC50,[23],0.06 µg/mL
C[C@]12CCC3=C(COC3=O)[C@@H]1C[C@@H]1O[C@@]13C(=O)[C@H]1O[C@H]1[C@@H]1O[C@]123,IC50,[1],537 nM
